Tested on: 388556-164-R-J1-PDC complex spheroid viability
Experiment: Anticancer human tumor 388556-164-R-J1-PDC patient-derived colon adenocarcinoma cell line growth inhibition [RAS]
Conditions: for IC50: curve of first compound; for viability, T/C: stronger effect = lower value
Description: RAS pathway inhibitors in Combinations in Complex Spheroids
A high-throughput screen of multi-cell type tumor spheroids was designed to identify active combinations of RAS pathway inhibitors and targeted small molecules. Complex spheroids include a stromal component modeled by human endothelial cells (HUVEC) and fibroblasts modeled by human mesenchymal stem cells (MSCs). The concentration ranges selected for each drug and investigational agent were based upon clinically achievable concentrations if the clinical Cmax of the agent was known.
Compounds. The drugs and investigational agents: abemaciclib (NSC768073), cobimetinib (NSC768068), divarasib (GDC6063, NSC841802), docetaxel (NSC628503), GDC-1971 (RLY-1971, NSC841576), gemcitabine (NSC613327), inavolisib (NSC800729), ipatasertib (NSC767898), KB-0742 (NSC834161), MRTX-1133 (NSC836407), osimertinib (NSC779217), RMC-4630 (NSC839698), RMC-6236 (NSC851965), RMC-6291 (NSC852671), Ro-3306 (NSC812927), sapanisertib (NSC764658), SN-38 (NSC673596), staurosporine (NSC755774), SY5609 (NSC837396), and tovorafenib (DAY101, NSC766906), were obtained from the National Cancer Institute (NCI) Developmental Therapeutics Program Chemical Repository. The FDA-approved anticancer drug set is available from the NCI Developmental Therapeutics Program. […] The stock solutions were prepared in dimethyl sulfoxide (DMSO, Sigma-Aldrich, St. Louis, MO, cat. D2650) at 800-fold the tested concentration and stored at -70 degrees C prior to their use. All drugs and investigational agents were tested over a range starting from a high concentration at or near the clinical Cmax and decreasing in half-log increments. If the clinical Cmax for an agent had not been determined, the highest concentration tested was 10 microM.
Cell Culture. All cells were maintained in an incubator at 37 degrees C and 5% CO2 with 95% humidity. The PDC lines were cultured according to standard operating procedures established by the NCI PDMR. All PDCs were thawed and cultured in Matrigel-coated flasks prepared with a working solution of 1X Ham's F-12 nutrient mix, without supplementation (Invitrogen, Waltham, MA, cat. 11765054), 100 U/mL penicillin-streptomycin (Invitrogen, cat. 15140122), and 2.5% Matrigel (Corning Inc., Corning, NY, cat. 354248) for the first three passages. The 362531-283-R-J2-PDC and 782815-120-R-J1-PDC lines were cultured in 6C/Colon 1B media, which includes advanced DMEM/F-12 (Thermo Fisher Scientific, cat. 12634028), 10 mM HEPES (Thermo Fisher Scientific, cat. 15630080), 1X GlutaMAX supplement (Thermo Fisher Scientific, cat. 35050061), 0.1 mg/mL primocin (InvivoGen, San Diego, CA, cat. ant-pm-2), 10% defined fetal bovine serum, heat inactivated (HyClone Laboratories Inc., Logan, UT, cat. SH30070.03HI), 50% L-WRN conditioned media (ATCC, cat. CRL-3276), 1.25 mM N-Acetyl-L-cysteine (Sigma-Aldrich, cat. A9165), 10 mM nicotinamide (Sigma-Aldrich, cat. N0636), 1X B-27 supplement (Thermo Fisher Scientific, cat. 17504044), 1X N-2 supplement (Thermo Fisher Scientific, cat. 17502048), 50 ng/mL human EGF (Thermo Fisher Scientific, cat. PHG0311), and 10 microM Y-27632 dihydrochloride (Tocris Bioscience, cat. 1254). The K12877-001-R-J1-PDC line was cultured in 6I media, which includes all 6C/Colon 1B media plus 10 ng/mL human FGF-10 (PeproTech, cat. 100-26), 1 ng/mL human FGF-2 (PeproTech, cat. 100-18B), 1 µM prostaglandin E2 (Tocris Bioscience, cat. 2296), […] hydrocortisone (Sigma-Aldrich, cat. H4001), and […] bovine insulin (Sigma-Aldrich, cat. I6634). The K86415-001-R-J1-PDC line was cultured in 6D media, which includes all 6C/Colon 1B media components minus the L-WRN conditioned media. The 485176-168-R4-J1-PDC was cultured in PANC media, which includes all 6C/Colon 1B media plus 100 ng/mL human FGF-10 (PeproTech, cat. 100-26), 500 nM SB-431542 (Selleckchem, cat. S1067), and 10 nM gastrin (Tocris Bioscience, cat. 3006). […]
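Note: spheroids exposed to compound for 7 days before readout.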
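Throughout, for viability, T/C: 100% = DMSO vehicle control luminescence.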

Compound: CC(C)NCC(C(=O)N1CCN(c2ncnc3c2C(C)CC3O)CC1)c1ccc(Cl)cc1 (configuration not stated) + C#Cc1c(F)ccc2cc(O)cc(-c3ncc4c(N5CC6CCC(C5)N6)nc(OCC56CCCN5CC(F)C6)nc4c3F)c12
- IC50 (second compound 0.0316 µM): > 10 µM
- IC50 (second compound 0.1 µM): > 10 µM
- IC50 (second compound 0.316 µM): > 10 µM
- IC50 (second compound 1 µM): > 10 µM
- IC50 (second compound 3.16 µM): > 10 µM
- IC50 (second compound 10 µM): 8.86 µM
- viability, T/C (second compound 0.0316 µM, first compound 0.0316 µM): 95.9%
- viability, T/C (second compound 0.0316 µM, first compound 0.1 µM): 106%
- viability, T/C (second compound 0.0316 µM, first compound 0.316 µM): 109%
- viability, T/C (second compound 0.0316 µM, first compound 1 µM): 98.6%
- viability, T/C (second compound 0.0316 µM, first compound 3.16 µM): 99.2%
- viability, T/C (second compound 0.0316 µM, first compound 10 µM): 100%
- viability, T/C (second compound 0.1 µM, first compound 0.0316 µM): 98.5%
- viability, T/C (second compound 0.1 µM, first compound 0.1 µM): 107%
- viability, T/C (second compound 0.1 µM, first compound 0.316 µM): 99.7%
- viability, T/C (second compound 0.1 µM, first compound 1 µM): 96%
- viability, T/C (second compound 0.1 µM, first compound 3.16 µM): 113%
- viability, T/C (second compound 0.1 µM, first compound 10 µM): 93.6%
- viability, T/C (second compound 0.316 µM, first compound 0.0316 µM): 99%
- viability, T/C (second compound 0.316 µM, first compound 0.1 µM): 105%
- viability, T/C (second compound 0.316 µM, first compound 0.316 µM): 88.5%
- viability, T/C (second compound 0.316 µM, first compound 1 µM): 99.2%
- viability, T/C (second compound 0.316 µM, first compound 3.16 µM): 107%
- viability, T/C (second compound 0.316 µM, first compound 10 µM): 82.3%
- viability, T/C (second compound 1 µM, first compound 0.0316 µM): 95.5%
- viability, T/C (second compound 1 µM, first compound 0.1 µM): 93.1%
- viability, T/C (second compound 1 µM, first compound 0.316 µM): 69.4%
- viability, T/C (second compound 1 µM, first compound 1 µM): 92.1%
- viability, T/C (second compound 1 µM, first compound 3.16 µM): 93.5%
- viability, T/C (second compound 1 µM, first compound 10 µM): 77.8%
- viability, T/C (second compound 3.16 µM, first compound 0.0316 µM): 80.6%
- viability, T/C (second compound 3.16 µM, first compound 0.1 µM): 66.6%
- viability, T/C (second compound 3.16 µM, first compound 0.316 µM): 75.9%
- viability, T/C (second compound 3.16 µM, first compound 1 µM): 83.8%
- viability, T/C (second compound 3.16 µM, first compound 3.16 µM): 88.4%
- viability, T/C (second compound 3.16 µM, first compound 10 µM): 59.4%
- viability, T/C (second compound 10 µM, first compound 0.0316 µM): 69.2%
- viability, T/C (second compound 10 µM, first compound 0.1 µM): 67.3%
- viability, T/C (second compound 10 µM, first compound 0.316 µM): 73.2%
- viability, T/C (second compound 10 µM, first compound 1 µM): 87.2%
- viability, T/C (second compound 10 µM, first compound 3.16 µM): 42%
- viability, T/C (second compound 10 µM, first compound 10 µM): 53.3%

— PubChem BioAssay AID2060907 (Molecular Pharmacology Branch, DTP, NCI, 2025)
